Data from patent publication US20220281860A1, “COMPOUNDS AND METHODS OF TREATING RNA-MEDIATED DISEASES” (Arrakis Therapeutics, Inc., priority 2016, published 2022).

Test system: RNA3WJ_0.0.0_5IB_3FAM
Assay: Ligand observed NMR binding assay (WaterLOGSY, STD)
Details: 10 μM RNA3WJ_0.0.0_5IB_3FAM +/− 200 compound
Method: Purpose: Test direct binding of compounds for RNA three way junction (3WJ). This ligand observed NMR assay is used to test direct binding of compounds to an RNA target, for example a 38 nt synthetic RNA 3WJ and others as described below. Ligand observed assay was used for hit validation studies of single compounds. Established experiments were eventually used to perform group epitope mapping, described below.
Sample buffer: 10 mM Cacodylate, pH 7.1; 0.68 g [MW: 137.99 g/mol]; fill up to 500 ml with Millipore H2O.
Compound Stocks: Tool compounds provided as dry powder were prepared as 50 mM stock solution in 100% d6-DMSO. […]
Proton 900 pulse is determined and water resonance frequency is adjusted to ensure maximal water suppression. The determined values are transferred to the NMR experiments that will be recorded for the respective sample. […]
Python scripts are used to process all recorded spectra in the assay setup, screening and deconvolution process.
Spectra were analyzed for direct binding signals of the compounds. […]
ARK0000013 was also tested in the NMR binding assay. Test Sample: 10 μM RNA3WJ_0.0.0_5IB_3FAM+/−200 Ark000013. ^1H 1D Watergate & WaterLOGSY spectra recorded of Ark000013 were used as a reference (Note: aromatic signals observed between 7.4-7.9 ppm and due to symmetry of the center triptycene scaffold all 9 protons are magnetically equivalent).

CN(CCCN)CCCNC(=O)c1ccc2c(c1)C1c3cc(C(=O)NCCCN(C)CCCN)ccc3C2c2ccc(C(=O)NCCCN(C)CCCN)cc21 [Ark0000013, N^2,N^7,N^15-tris(3-((3-aminopropyl)(methyl)amino)propyl)-9,10-dihydro-9,10-[1,2]benzenoanthracene-2,7,15-tricarboxamide]
STD signals: small signals that were sufficient to qualitatively confirm binding
